The term IC50 denotes the point on the concentration scale where inhibition reaches its midpoint. Lower therefore signals inhibition by little substance.

We go through seven compounds from US20240208972A1, “LRRK2 INHIBITORS AND USES THEREOF” (NEURON23, INC., priority 2022, published 2024).

The target in series [1] is T1, wt human LRRK2, catalytic site (Homo sapiens, UniProt Q5S007).
T1 construct: wt human LRRK2, catalytic site, catalytic site (ThermoFisher/USA); purchased ThermoFisher
Put plainly: TR-FRET LanthaScreen Tb Kinase Activity Assay, LRRK2 kinase inhibition. Type of series: biochemical. The note with it: 2 nM wt human LRRK2, 400 nM peptide, 38 μM ATP. How it is done:
The compounds disclosed herein were tested for their inhibitory effect on LRRK2 kinase according to the following procedures.
The protocol for basic TR-FRET LanthaScreen Tb Kinase Activity Assay inhibitor studies is as follows. LanthaScreen Kinase Activity Assays (ThermoFisher/USA) to evaluate inhibitors were performed by addition of 100 nL of test compound in the corresponding DMSO dilutions/5 L of kinase/fluorescein-ERM(LRRKtide) peptide mixture, Compound & kinase were pre-incubated for 15 minutes, then 5 μl of ATP into 384 well small volume plates. After incubation for 120 minutes at room temperature, the detection reagents containing Tb-anti-pLRRKtide antibody were added to monitor the phosphrylation level of peptide. Then, after 60 min minutes incubation at room temperature plates were read in Envision. Data analysis of emission ratios was according to the LanthaScreen Tb Kinase Activity Assay protocol.
Kinase and assay components were adjusted to final concentrations according to the kit protocol. For LRRK2: 2 nM wt human LRRK2, catalytic site, catalytic site (ThermoFisher/USA), 400 nM peptide, 38 μM ATP in 1× Kinase Buffer A.
Basic protocol for TR-FRET LanthaScreen Tb Kinase Activity Assay inhibitor studies involved two steps: Enzymatic step: Addition of 100 nl of test compound in corresponding DMSO dilutions, 5 μl of kinase/substrate mixture, 5 μl of ATP into 384 well small volume plates. Incubation for 120 minutes at room temperature.
Detection step: Addition of 10 μl EDTA & antibody, read plate after 60 minutes. Data analysis of emission ratios according to KinEASE assay protocol.
Kinase and assay components were adjusted to final concentrations according to the kit protocol.
In general terms: Time-resolved FRET reads energy transfer from a long-lived donor to a nearby acceptor.

The next series concerns Caco-2 cells. Put plainly: Caco-2 bidirectional permeability. Type of series: in vitro ADME. The note with it: for Caco-2 A2B (10^−6 cm/s): A to B; for Caco-2 A2B (10^−6 cm/s) / Caco-2 B2A (10^−6 cm/s): HBSS pH 7.4, 2 hours; for Caco-2 B2A (10^−6 cm/s): B to A; for Caco-2 ER: Efflux Ratio=Papp (BA)/Papp (AB). How it is done:
The compounds disclosed herein were tested in vitro on CaCo2 cell penetration according to the following procedures.
Test compounds were prepared in dimethyl sulfoxide (DMSO).
Caco-2 cells purchased from ATCC were seeded onto […] (PET) in 96-well Corning Insert plates at 1×10^5 cells/cm^2. The media were refreshed every 4 to 5 days until the 21st to 28th day for confluent cell monolayer formation.
Experiments were run in duplicate using a HBSS transport buffer containing 10 mM HEPES at pH 7.4. The test article TEST COMPOUND was tested bi-directionally at […] concentrations, the control compound digoxin was tested bi-directionally at 10 μM, and nadolol and metoprolol were tested at 2.0 μM in the A to B direction. Final DMSO concentrations were adjusted to less than 1%. The plates were incubated for 2 hours in a CO2 incubator at 37±1° C. with 5% CO2 at saturated humidity without shaking. Following incubation, samples were mixed with acetonitrile containing internal standard and centrifuged at 3200×g for 10 minutes. Then 200 μL of supernatant was taken from all samples. For TEST COMPOUND and digoxin, the supernatant was diluted with 200 μL of ultra-pure water and for nadolol and metoprolol, the supernatant was diluted with 600 μL of ultra-pure water. All samples were analyzed by LC-MS/MS. Concentrations of TEST COMPOUND and control compounds were determined in starting solutions, donor well solutions, and receiver well solutions using peak area ratios (PAR) of analyte to internal standard. After the transport assay, a lucifer yellow rejection assay was run to determine the Caco-2 cell monolayer integrity.
The apparent permeability (Papp), the % recovery and the efflux ratio were calculated as follows: • 1. Papp=(dCr/dt)×Vr/(A×C0) • 2. % Recovery=100×[(Vr×Cr)+(Vd×Cd)]/(Vd×C0) • 3. Efflux Ratio=Papp (BA)/Papp (AB) • Where: • dCr/dt is the slope of the cumulative concentration in the receiver compartment versus time (mM/s). • Vr and Vd is the volume in the receiver and donor compartments (0.075 mL on the apical side, 0.25 mL on the basolateral side), respectively. • A is the surface area of the cell monolayer (0.0804 cm^2). • C0 is the measured donor concentrations (μM) at the beginning of the experiment. • Cd and Cr are the final measured concentrations in the donor and receiver compartments, respectively.
The cell monolayer tight junction integrity assay was conducted after completion of the transport assay by adding Lucifer Yellow (LY) to the apical wells at 100 μM and incubating the cells for 30 minutes. Following incubation, tight junction integrity was assessed from LY concentrations in the basolateral compartment (receiver well) and the apical compartment (donor well) using fluorescence detection as follows: […]

Series [2] is described as follows: Human hepatocyte stability, in vitro h-Hept CLpredict. Type of series: in vitro ADME. The note with it: cryopreserved hepatocytes, predicted hepatic clearance, cells without asterisk, read-out: hHep Cl. How it is done: The compounds disclosed herein were tested in vitro on human hepatocyte for in vitro h-Hept CLpredict according to the following procedures. • 1. Compound sock solutions were prepared by dissolving test compound and positive control in dimethyl sulfoxide (DMSO) at a concentration of 10 mM. Stock solutions were then diluted to 100 μM solutions by combining 198 μL of 50% acetonitrile/50% water with 2 μL of the 10 mM stock stock in separate conical tubes. • 2. Cryopreserved hepatocytes were prepared as follows: Incubation medium (William's E Medium supplemented with GlutaMAX) and hepatocyte thawing medium were placed in a 37° C. water bath and allowed to warm for at least 15 minutes prior to use. Cryopreserved hepatocytes were removed from storage, ensuring that vials remained at cryogenic temperatures until thawed. Cells were thawed by placing the vials in a 37° C. water bath and gently shaking the vials for 2 minutes. After thawing was completed, vials were sprayed with 70% ethanol and transferred to a biosafety cabinet. Hepatocytes were transferred into 50 mL conical tube containing thawing medium using wide-bore pipette tips. Tubes were placed into a centrifuge and spun at 100 g for 10 minutes. Then thawing medium was aspirated and hepatocytes were resuspended in enough incubation medium to yield−1.5×10^6 cells/mL. Cells were counted using acridine orange and propidium iodide (AO/PI) staining, and the viable cell density was determined. Cells were diluted with incubation medium to a working cell density of 0.5×10^6 viable cells/mL. • 3. To determine hepatocyte stability, 198 μL of hepatocytes were transferred into each well of a 96-well non-coated plate. Plates were placed in an incubator to allow the hepatocytes to warm for 10 minutes. • 4. The reaction was started by transferring 2 μL of the 100 μM test compound or positive control solution into respective wells of the 96-well non-coated plates. Plates were returned to the incubator until 25 μL aliquots of well contents were sampled at time points of 0, 15, 30, 60, 90 and 120 minutes. The aliquots were then mixed with 6 volumes (150 μL) of acetonitrile containing internal standard, IS (100 nM alprazolam, 200 nM caffeine and 100 nM tolbutamide) to terminate the reaction and vortexed for 5 minutes. After centrifuging the samples for 45 minutes at 3,220 g, aliquots of 100 μL of the supernatant were taken and diluted with 100 μL of ultra-pure water. The mixture was used for LC/MS/MS analysis. All incubations were performed in duplicate.
All calculations were carried out using Microsoft Excel. Peak area ratios (PAR) were determined from extracted ion chromatograms. The in vitro half-life (t1/2) of parent compound was determined by regression analysis of the percent parent disappearance vs. time curve as follows:
The in vitro half-life (in vitro t1/2) was determined from the slope value:
Conversion of the in vitro t1/2 (in minutes) into the in vitro intrinsic clearance (in vitro CLint, in μL/min/1×10^6 cells) was done using the following equation (mean of duplicate determinations): […]
The scaled-up intrinsic clearance (CLint, mL/min/kg), predicted hepatic clearance (CLH, mL/min/kg) and hepatic extraction ratio (ER) were calculated using the following equations:
CLint=(0.693/t1/2)*(1/(hepatocyte concentration (0.5*10^6 cells/mL))*scaling factors (Table (A)
• CLHept-predict=(QH*Scaled-up CLint*fub)/(QH+Scaled-up CLint*fub) • ER=CLH/QH • Where: • V=incubation volume (0.2 mL) • N=number of hepatocytes per well (0.1*10^6 cells) • QH=hepatic blood flow (mL/min/kg) (Table (A)
• fub=fraction of unbound drug in plasma, assumed to be 1 • Values used for calculation of the predicted hepatic clearance parameters data processing rules are outlined in the following tables (A) (B)

T1 sequence (Q5S007 1879-2138 limits assumed): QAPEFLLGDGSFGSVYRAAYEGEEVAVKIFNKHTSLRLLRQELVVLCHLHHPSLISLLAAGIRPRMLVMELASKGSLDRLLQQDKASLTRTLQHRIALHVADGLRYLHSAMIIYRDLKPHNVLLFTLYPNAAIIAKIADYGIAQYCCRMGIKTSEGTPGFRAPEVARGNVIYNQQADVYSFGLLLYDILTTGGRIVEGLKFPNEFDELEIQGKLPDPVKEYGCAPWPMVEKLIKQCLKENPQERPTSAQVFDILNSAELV

Turning to `Cc1n[nH]c2c1N=C(c1c(F)cccc1F)Nc1cnc(N3CC4CC4C3)cc1-2` (centres unmarked) [Example 56, 13-(3-azabicyclo[3.1.0]hexan-3-yl)-8-(2,6-difluorophenyl)-5-methyl-3,4,7,9,12-pentazatricyclo[8.4.0.02,6]tetradeca-1(10),2(6),4,7,11,13-hexaene], in series [1], the 50% inhibitory concentration (IC50) is < 2 nM. Besides, in the series on Caco-2 cells, the “Caco-2 A2B (10^−6 cm/s)” value is recorded as “H (H (High permeability)”: A2B (B2A)>5)”, the “Caco-2 B2A (10^−6 cm/s)” value is on record as “H (H (High permeability)”: A2B (B2A)>5)” and the “Caco-2 ER” value is given as “N (N (Non-substrate)”: ER<2.5)”. Besides, the CLhep predicted at 1 µM in series [2] is > 14.7 mL/min/kg.
`Cc1n[nH]c2c1N=C(c1c(F)cccc1F)Nc1cnc(-n3ccc(C(F)(F)F)n3)cc1-2` [Example 15, 8-(2,6-difluorophenyl)-5-methyl-13-[3-(trifluoromethyl)pyrazol-1-yl]-3,4,7,9,12-pentazatricyclo[8.4.0.02,6]tetradeca-1(10),2(6),4,7,11,13-hexaene]: in series [1], the IC50 is < 2 nM. Moreover, in the series on Caco-2 cells, the “Caco-2 A2B (10^−6 cm/s)” value is listed as “M (M (Moderate permeability)”: 1≤A2B (B2A)≤5)”, the “Caco-2 B2A (10^−6 cm/s)” value is reported as “M (M (Moderate permeability)”: 1≤A2B (B2A)≤5)” and the “Caco-2 ER” value was “N (N (Non-substrate)”: ER<2.5)”. In addition, the CLhep predicted at 1 µM in series [2] is 6.3 to 14.7 mL/min/kg.
On to `Cc1cc(-c2ccc3c(c2)-c2[nH]nc(C)c2N=C(c2c(F)cccc2F)N3)ccn1` [Example 52, 5-(2,6-difluorophenyl)-3-methyl-9-(2-methyl-4-pyridyl)-1,6-dihydropyrazolo [4,3-d] [1, 3] benzodiazepine], for which, in series [1], the IC50 was < 2 nM. In the series with Caco-2 cells, the “Caco-2 A2B (10^−6 cm/s)” value is listed as “H (H (High permeability)”: A2B (B2A)>5)”, the “Caco-2 B2A (10^−6 cm/s)” value is recorded as “H (H (High permeability)”: A2B (B2A)>5)” and the “Caco-2 ER” value is listed as “N (N (Non-substrate)”: ER<2.5)”. Besides, the CLhep predicted at 1 µM in series [2] is 6.3 to 14.7 mL/min/kg.
Regarding `CCc1n[nH]c2c1N=C(c1c(F)cccc1F)Nc1cnc(N3CCO[C@@H](C)C3)cc1-2` [Example 35, (S)-4-(5-(2,6-difluorophenyl)-3-ethyl-1,6-dihydropyrazolo[4,3-d]pyrido[4,3-f][1,3]diazepin-9-yl)-2-methylmorpholine], in series [1], the IC50 was < 2 nM. Also, in the series on Caco-2 cells, the “Caco-2 A2B (10^−6 cm/s)” value is listed as “H (H (High permeability)”: A2B (B2A)>5)”, the “Caco-2 B2A (10^−6 cm/s)” value is on record as “H (H (High permeability)”: A2B (B2A)>5)” and the “Caco-2 ER” value is reported as “N (N (Non-substrate)”: ER<2.5)”. Besides, in series [2], the CLhep predicted at 1 µM is < 6.3 mL/min/kg.
Regarding `CCOC[C@H]1CN(c2cc3c(c(C)n2)NC(c2c(F)cccc2F)=Nc2c(C)n[nH]c2-3)CCO1` [Example 51, (R)-4-(5-(2,6-difluorophenyl)-3,7-dimethyl-1,6-dihydropyrazolo[4,3-d]pyrido[4,3-f][1,3]diazepin-9-yl)-2-(ethoxymethyl)morpholine], in series [1], the IC50 is < 2 nM. In the series with Caco-2 cells, the “Caco-2 A2B (10^−6 cm/s)” value is on record as “M (M (Moderate permeability)”: 1≤A2B (B2A)≤5)”, the “Caco-2 B2A (10^−6 cm/s)” value is “H (H (High permeability)”: A2B (B2A)>5)” and the “Caco-2 ER” value was “N (N (Non-substrate)”: ER<2.5)”. Also, the CLhep predicted at 1 µM in series [2] is 6.3 to 14.7 mL/min/kg.
The like results for `Cc1n[nH]c2c1N=C(c1c(F)cccc1F)Nc1c-2cc(N2CCC(C)(C#N)CC2)nc1C` [Example 43, 1-[8-(2,6-difluorophenyl)-5,11-dimethyl-3,4,7,9,12-pentazatricyclo[8.4.0.02,6]tetradeca-1(10),2(6),4,7,11,13-hexaen-13-yl]-4-methyl-piperidine-4-carbonitrile] were, in that order, < 2 nM, “H (H (High permeability)”: A2B (B2A)>5)”, “H (H (High permeability)”: A2B (B2A)>5)”, “N (N (Non-substrate)”: ER<2.5)” and 6.3 to 14.7 mL/min/kg.
Take `Cc1n[nH]c2c1N=C(c1c(F)cccc1F)Nc1c-2cc(N2C[C@H](C)O[C@@H](C)C2)nc1C` [Example 39, (2S,6S)-4-[8-(2,6-difluorophenyl)-5,11-dimethyl-3,4,7,9,12-pentazatricyclo[8.4.0.02,6]tetradeca-1(10),2(6),4,7,11,13-hexaen-13-yl]-2,6-dimethyl-morpholine]: in series [1], the IC50 is < 2 nM. In the series with Caco-2 cells, the “Caco-2 A2B (10^−6 cm/s)” value is “H (H (High permeability)”: A2B (B2A)>5)”, the “Caco-2 B2A (10^−6 cm/s)” value was “H (H (High permeability)”: A2B (B2A)>5)” and the “Caco-2 ER” value is given as “N (N (Non-substrate)”: ER<2.5)”. Also, the CLhep predicted at 1 µM in series [2] was 6.3 to 14.7 mL/min/kg.
